Results as given in paper PMC8699473, “An Easily Expandable Multi-Drug LC-MS Assay for the Simultaneous Quantification of 57 Oral Antitumor Drugs in Human Plasma” (Cancers, 2021).

Assay: Short-term stability in spiked pooled human plasma (bench-top, 4 °C, 56 °C)
Settings: for light sensitivity: acceptance limit <85%

SMILES | light sensitivity | Short-time stability (1h, 56°C) Accuracy [%] (validation standard 2xLLOV) | Short-time stability (24h, 4°C, without daylight) Accuracy [%] (validation standard 2xLLOV) | Short-time stability (24h, RT, with daylight) Accuracy [%] (validation standard 2xLLOV) | Short-time stability (24h, RT, without daylight) Accuracy [%] (validation standard 2xLLOV) | Short-time stability (1h, 56°C) Accuracy [%] (validation standard LLOV) | Short-time stability (24h, 4°C, without daylight) Accuracy [%] (validation standard LLOV) | Short-time stability (24h, RT, with daylight) Accuracy [%] (validation standard LLOV) | Short-time stability (24h, RT, without daylight) Accuracy [%] (validation standard LLOV) | Short-time stability (1h, 56°C) Accuracy [%] (validation standard MOV) | Short-time stability (24h, 4°C, without daylight) Accuracy [%] (validation standard MOV) | Short-time stability (24h, RT, with daylight) Accuracy [%] (validation standard MOV) | Short-time stability (24h, RT, without daylight) Accuracy [%] (validation standard MOV) | Short-time stability (1h, 56°C) Accuracy [%] (validation standard ULOV) | Short-time stability (24h, 4°C, without daylight) Accuracy [%] (validation standard ULOV) | Short-time stability (24h, RT, with daylight) Accuracy [%] (validation standard ULOV) | Short-time stability (24h, RT, without daylight) Accuracy [%] (validation standard ULOV)
CNC(=O)c1ccccc1Sc1ccc2c(/C=C/c3ccccn3)n[nH]c2c1 [Axitinib] | no losses of concentrations below the acceptance limit | 67.7% | 103.6% | 107.5% | 86.7% | 71.1% | 129.6% | 108.7% | 106.1% | 54.6% | 100.6% | 116.9% | 99.3% | 46.2% | 97.2% | 123.3% | 101.6%
CNC(=O)c1cc(Oc2ccc(NC(=O)Nc3ccc(Cl)c(C(F)(F)F)c3)c(F)c2)ccn1 [Regorafenib] | – | 41.3% | 95.0% | 89.4% | 83.8% | 32.3% | 83.3% | 88.6% | 80.3% | 39.7% | 104.6% | 90.2% | 90.8% | 35.4% | 101.4% | 89.0% | 87.8%
Cc1ccc(NC(=O)c2ccc(CN3CCN(C)CC3)cc2)cc1Nc1nccc(-c2cccnc2)n1 [Imatinib] | – | – | 105.2% | 86.0% | 82.7% | – | 81.3% | 83.7% | 83.8% | – | 102.2% | 93.6% | 88.6% | – | 94.2% | 85.6% | 82.9%
COc1cc2c(Nc3ccc(Br)cc3F)ncnc2cc1OCC1CCN(C)CC1 [Vandetanib] | – | 44.7% | 99.4% | 97.2% | 94.8% | 24.9% | 91.7% | 81.4% | 80.3% | 49.3% | 101.6% | 95.8% | 95.1% | 41.3% | 88.8% | 83.1% | 83.3%
COC(=O)N[C@@H](C)CNc1nccc(-c2cn(C(C)C)nc2-c2cc(Cl)cc(NS(C)(=O)=O)c2F)n1 [Encorafenib] | – | 54.9% | 106.5% | 109.5% | 112.9% | – | 110.1% | 108.1% | 104.0% | 54.0% | 102.1% | 105.9% | 109.8% | 44.5% | 98.5% | 108.8% | 108.3%
CC(C)(C)c1nc(-c2cccc(NS(=O)(=O)c3c(F)cccc3F)c2F)c(-c2ccnc(N)n2)s1 [Dabrafenib] | no losses of concentrations below the acceptance limit | 46.2% | 99.6% | 98.0% | 107.6% | 42.8% | 112.7% | 97.0% | 108.2% | 42.4% | 100.0% | 97.7% | 99.3% | 35.6% | 94.0% | 100.2% | 99.7%
CCN1CCN(Cc2ccc(Nc3ncc(F)c(-c4cc(F)c5nc(C)n(C(C)C)c5c4)n3)nc2)CC1 [Abemaciclib] | – | 27.9% | 102.9% | 88.7% | 87.4% | 27.4% | 93.7% | 90.1% | 88.2% | 34.3% | 104.5% | 90.3% | 91.7% | 34.9% | 94.4% | 88.4% | 87.5%
CS(=O)(=O)c1ccc(C(=O)Nc2ccc(Cl)c(-c3ccccn3)c2)c(Cl)c1 [Vismodegib] | – | 63.8% | 105.0% | 114.6% | 117.6% | 34.2% | 87.2% | 96.1% | 99.6% | 65.7% | 105.3% | 111.1% | 114.6% | 54.4% | 94.5% | 103.5% | 104.5%
COc1cc2nccc(Oc3ccc(NC(=O)NC4CC4)c(Cl)c3)c2cc1C(N)=O [Lenvatinib] | – | 56.5% | 103.4% | 96.8% | 94.6% | 62.9% | 114.0% | 106.4% | 110.0% | 46.6% | 95.9% | 93.9% | 94.3% | 40.6% | 100.4% | 102.7% | 97.9%
